Test system: B-16 melanoma cells
Experiment: Evaluation of melanin production-inhibitory effect (cell-whitening degree of cultured B-16 melanoma cells); as to Melanin production-inhibitory effect (cell-whitening degree): key: ++: The whitening degree is higher than that observed for the positive control; +: The whitening degree is almost identical to that observed for the positive control; ±: The whitening degree is not higher than that observed for the positive control, but higher than that observed for the control; −: The whitening degree is almost identical to that observed for the control
Type: cell-based
Settings: for Melanin production-inhibitory effect (cell-whitening degree): positive control 450 ppm vitamin C-magnesium phosphate; for melanogenesis-inhibitory function relative to that observed when 450 ppm of vitamin C-magnesium phosphate (standard) is added: from Table 1
Description: In the present invention, the melanogenesis-inhibitory effect is evaluated and compared on the basis of the results of tests for examining the melanogenesis-inhibitory function in which B-16 melanoma cells are cultivated, as a primary evaluation. Moreover, a feed is, for instance, practically prepared and its effectiveness in the melanogenesis-inhibition is evaluated as a secondary evaluation. It has been confirmed that the pentacyclic triterpenes whose strong melanogenesis-inhibitory function is confirmed by the cell culture test as the primary evaluation also show an excellent effect in the secondary evaluation test. In addition, it has also been confirmed that there is a correlation between the results obtained in these two evaluation methods.
If the culture system includes a melanogenesis-inhibitory substance during the proliferation thereof, the blackening of the cells is suppressed while the whitening thereof is relatively promoted. Accordingly, the melanogenesis-inhibitory function of the substance can be evaluated by comparing the degree of whitening observed for the substance with the degree of blackening observed for a control. The evaluated results of the melanogenesis-inhibitory effect obtained in this cell culture system clearly indicate that the pentacyclic triterpenes and/or physiologically acceptable salts thereof or derivatives thereof have quite strong melanogenesis-inhibitory effects. For instance, when comparing the effects thereof with that achieved by vitamin C-magnesium phosphate, the melanogenesis-inhibitory effect is about 100 to 200 times, for maslinic acid, about 100 to 200 times, for maslinic acid salts, about 10 to 100 times, for erythrodiol, about 30 to 120 times, for uvaol, about 30 to 120 times, for betulinic acid, about 10 to 100 times, for betulin, about 100 to 200 times, for ethyl maslinate, about 50 to 150 times, for acetylated maslinic acid, about 30 to 120 times, for triethylsilylated maslinic acid, about 50 to 150 times, for stearoyl derivative of ethyl maslinate, about 10 to 100 times, for acetylated erythrodiol, about 10 to 100 times, for acetylated uvaol, about 10 to 100 times, for ethyl betulinate, and about 5 to 50 times, for acetylated betulin, that observed for the vitamin C-magnesium phosphate.
A culture medium was dispensed to wells of a 6-well plate (2 mL/well each), followed by inoculation of a desired amount of B-16 melanoma cells on each well, allowing the wells to stand at 37° C. and 5% CO2 to thus cultivate the cells. On the day subsequent thereto, a candidate sample (pentacyclic triterpenes) solution prepared was added to and mixed with the culture medium containing the cells and the cultivation was continued. The culture medium was replaced with fresh one on the 5th day from the initiation of the cultivation and the prepared sample solution was again added to the wells. On the next day, the culture medium was removed to recover the cells, followed by the washing of these cells with PBS (phosphate buffered physiological saline) and the subsequent evaluation of the cell-whitening degree. In this respect, the melanogenesis-inhibitory function was evaluated by comparing the cell-whitening degree thus obtained with that observed when using 450 ppm of vitamin C-magnesium phosphate as a known whitening agent (a positive control) and that obtained when any candidate sample was not used (control), according to the following evaluation criteria.
The evaluation criteria for the cell-whitening degree are as follows:
Regarding the results listed in Table 1, the whitening degree observed when adding 450 ppm of vitamin C-magnesium phosphate is selected as a standard.

SMILES | Melanin production-inhibitory effect (cell-whitening degree) (10 ppm) | Melanin production-inhibitory effect (cell-whitening degree) (15 ppm) | Melanin production-inhibitory effect (cell-whitening degree) (25 ppm) | Melanin production-inhibitory effect (cell-whitening degree) (50 ppm) | Melanin production-inhibitory effect (cell-whitening degree) (100 ppm) | Melanin production-inhibitory effect (cell-whitening degree) (200 ppm) | Melanin production-inhibitory effect (cell-whitening degree) (300 ppm) | Melanin production-inhibitory effect (cell-whitening degree) (450 ppm) | Melanin production-inhibitory effect (cell-whitening degree) (2 ppm) | Melanin production-inhibitory effect (cell-whitening degree) (4 ppm) | Melanin production-inhibitory effect (cell-whitening degree) (6 ppm) | Melanin production-inhibitory effect (cell-whitening degree) (8 ppm) | melanogenesis-inhibitory function relative to that observed when 450 ppm of vitamin C-magnesium phosphate (standard) is added | concentration required for showing the effect identical to that observed for 450 ppm of vitamin C-magnesium phosphate [ppm]
O=c1cc(CO)occ1O [Kojic Acid, reference compound] | − | − | − | ± | ± | + | ++ | ++ |  |  |  |  |  | 
C[C@H]1[C@H](C)CC[C@]2(C(=O)O)CC[C@]3(C)C(=CC[C@@H]4[C@@]5(C)CC[C@H](O)C(C)(C)[C@@H]5CC[C@]43C)[C@H]12 [Ursolic acid] | ++ |  |  |  |  |  |  |  | ± | + | ++ | ++ | about 110 times | 
CC1(C)CC[C@]2(C(=O)O)CC[C@]3(C)C(=CC[C@@H]4[C@@]5(C)C[C@@H](O)[C@H](O)C(C)(C)[C@@H]5CC[C@]43C)[C@@H]2C1 [Purified maslinic acid 2, maslinic acid] | ++ |  |  |  |  |  |  |  | ± | + | ++ | ++ |  | 
CC1(C)CC[C@]2(C(=O)O)CC[C@]3(C)C(=CC[C@@H]4[C@@]5(C)C[C@@H](O)[C@H](O)C(C)(C)[C@@H]5CC[C@]43C)[C@@H]2C1 [Purified maslinic acid 1, maslinic acid] |  |  |  |  |  |  |  |  |  |  |  |  | about 110 times | 4
CC(=O)O[C@@H]1C[C@]2(C)[C@H]3CC=C4[C@@H]5CC(C)(C)CC[C@]5(C(=O)O)CC[C@@]4(C)[C@]3(C)CC[C@H]2C(C)(C)[C@H]1OC(C)=O [Compound of Synthesis 2, 2,3-O-Di-Acetyl-Maslinic Acid] | ++ | ++ |  |  |  |  |  |  | ± | ± | + | ++ | about 75 times | 
C=C(C)[C@@H]1CC[C@]2(C(=O)O)CC[C@]3(C)[C@H](CC[C@@H]4[C@@]5(C)CC[C@H](O)C(C)(C)[C@@H]5CC[C@]43C)[C@@H]12 [Betulinic acid] | + |  | + | + |  |  |  |  | − |  | ± |  | about 40 times | 
CCOC(=O)[C@]12CCC(C)(C)C[C@H]1C1=CC[C@@H]3[C@@]4(C)C[C@@H](O)[C@H](O)C(C)(C)[C@@H]4CC[C@@]3(C)[C@]1(C)CC2 [Compound of Synthesis 1, Ethyl Ester of Maslinic Acid] | ++ |  |  |  |  |  |  |  | ± | + | ++ | ++ | about 110 times | 
C=C(C)[C@@H]1CC[C@]2(CO)CC[C@]3(C)[C@H](CC[C@@H]4[C@@]5(C)CC[C@H](O)C(C)(C)[C@@H]5CC[C@]43C)[C@@H]12 [Betulin] | ± |  | + | + |  |  |  |  | − |  | ± |  | about 20 times | 
CC(=O)OC[C@]12CC[C@@H](C)[C@H](C)[C@H]1C1=CC[C@@H]3[C@@]4(C)CC[C@H](OC(C)=O)C(C)(C)[C@@H]4CC[C@@]3(C)[C@]1(C)CC2 [Compound of Synthesis 7, 3,28-O-Di-Acetyl-Uvaol] | ± |  | + | + |  |  |  |  | − |  | − |  | about 20 times | 
C=C(C)[C@@H]1CC[C@]2(COC(C)=O)CC[C@]3(C)[C@H](CC[C@@H]4[C@@]5(C)CC[C@H](OC(C)=O)C(C)(C)[C@@H]5CC[C@]43C)[C@@H]12 [Compound of Synthesis 9, 3,28-O-Di-Acetyl-Betulin] | ± |  | ± | + |  |  |  |  | − |  | − |  | about 10 times | 
CCCCCCCCCCCCCCCCCC(=O)O[C@@H]1C[C@]2(C)[C@H]3CC=C4[C@@H]5CC(C)(C)CC[C@]5(C(=O)OCC)CC[C@@]4(C)[C@]3(C)CC[C@H]2C(C)(C)[C@H]1OC(=O)CCCCCCCCCCCCCCCCC [Compound of Synthesis 4, Ethyl 2,3-O-Di-Stearoyl-Maslinate] | ++ | ++ |  |  |  |  |  |  | ± | ± | + | ++ | about 75 times | 
CC[Si](CC)(CC)OC(=O)[C@]12CCC(C)(C)C[C@H]1C1=CC[C@@H]3[C@@]4(C)C[C@@H](O[Si](CC)(CC)CC)[C@H](O[Si](CC)(CC)CC)C(C)(C)[C@@H]4CC[C@@]3(C)[C@]1(C)CC2 [Compound of Synthesis 3, Triethylsilyl Ester of 2,3-O-Di-Triethylsilyl-Maslinic Acid] | + |  | + | + |  |  |  |  | − |  | ± |  | about 40 times | 
CC(=O)OCC12CCC(C)(C)CC1C1=CCC3C4(C)CCC(OC(C)=O)C(C)(C)C4CCC3(C)C1(C)CC2 (centres unmarked) [Compound of Synthesis 5, 3,28-O-Di-Acetyl-Erythrodiol] | ± |  | + | + |  |  |  |  | − |  | ± |  | about 20 times | 
C=C(C)[C@@H]1CC[C@]2(C(=O)OCC)CC[C@]3(C)[C@H](CC[C@@H]4[C@@]5(C)CC[C@H](O)C(C)(C)[C@@H]5CC[C@]43C)[C@@H]12 [Compound of Synthesis 8, Ethyl Betulinate] | ± |  | + | + |  |  |  |  | − |  | ± |  | about 20 times | 

Source: patent US20040175447A1, “Feeds and fertilizers containing pentacyclic triterpenes” (The Nisshin OilliO, Ltd., priority 2001, published 2004)
